Reference: patent publication US9695155B2, “Herbicidal substituted pyrimidinyloxy benzene compounds” (E. I. DU PONT DE NEMOURS AND COMPANY, priority 2013, dated 2017)

What was measured:
[1] = test system: barnyardgrass; assay: Test A preemergence; assay type: in vivo, Echinochloa crus-galli; conditions: for Barnyardgrass plant response rating (0 to 100 scale, 0 is no effect, 100 is complete control): 125 g ai/ha; for Barnyardgrass plant response rating: 500 g ai/ha, 0 to 100 scale where 0 is no effect and 100 is complete control
In short: (§1)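 Visual injury scored 0–100 (100 = complete control) against untreated controls about 10 days after treatment in a greenhouse. Test chemicals, formulated with surfactant in non-phytotoxic solvent, were sprayed on soil preemergence or on 2-10 cm, one- to two-leaf plants postemergence.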

[2] = test system: large (Lg) crabgrass; assay: Test A preemergence; assay type: in vivo, Digitaria sanguinalis; conditions: for Crabgrass, Large plant response rating (0 to 100 scale): 125 g ai/ha; for Crabgrass, Large plant response rating: 500 g ai/ha, 0 to 100 scale where 0 is no effect and 100 is complete control
In short: as §1

[3] = test system: pigweed; assay: Test A preemergence; assay type: in vivo, Amaranthus retroflexus; conditions: for Pigweed plant response rating (0 to 100 scale): 125 g ai/ha; for Pigweed plant response rating: 500 g ai/ha, 0 to 100 scale where 0 is no effect and 100 is complete control
In short: as §1

[4] = test system: corn; assay: Test A preemergence; assay type: in vivo, Zea mays; conditions: for Corn plant response rating (0 to 100 scale): 125 g ai/ha; for Corn plant response rating: 500 g ai/ha, 0 to 100 scale where 0 is no effect and 100 is complete control
In short: as §1

[5] = test system: large (Lg) crabgrass; assay: Test A postemergence; assay type: in vivo, Digitaria sanguinalis; conditions: 0 to 100 scale where 0 is no effect and 100 is complete control; for Crabgrass, Large plant response rating: 125 g ai/ha; for Plant response rating, Crabgrass, Large: 500 g ai/ha
In short: as §1

[6] = test system: rice; assay: Test B flooded paddy test; assay type: in vivo, Oryza sativa; conditions: Flood, 250 g ai/ha; 0 to 100 scale where 0 is no effect and 100 is complete control
In short: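 2-leaf stage plants; pots flooded to 3 cm, compound added to paddy water, depth maintained. Greenhouse 13–15 d. Visual rating vs untreated controls, 0 (no effect) to 100 (complete control); dash = no result.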

[7] = test system: giant foxtail; assay: Test C preemergence; assay type: in vivo, Setaria faberii; conditions: for Foxtail, Giant plant response rating: preemergence; for Plant response rating, Foxtail, Giant: Preemergence, 62 g ai/ha, scale 0 to 100, 0 no effect, 100 complete control
In short: (§2)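 Visual injury score versus untreated controls, 0 = no effect, 100 = complete control, taken 13 to 15 days after treatment in the greenhouse. Pre-emergence pots held loam/sand; post-emergence plants grew in sphagnum peat/vermiculite mix and were sprayed at the 1- to 4-leaf stage.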

[8] = test system: yellow nutsedge; assay: Test C preemergence; assay type: in vivo, Cyperus esculentus; conditions: for Nutsedge, Yellow plant response rating: preemergence; for Plant response rating, Nutsedge, Yellow: Preemergence, 62 g ai/ha, scale 0 to 100, 0 no effect, 100 complete control
In short: as §2

[9] = test system: Italian ryegrass; assay: Test C postemergence; assay type: in vivo, Lolium multiflorum; conditions: for Ryegrass, Italian plant response rating: 31 g ai/ha; for Ryegrass, Italian plant response rating / Plant response rating, Ryegrass, Italian: scale 0 to 100 (0 no effect, 100 complete control)
In short: as §2

[10] = test system: large (Lg) crabgrass; assay: Test C postemergence; assay type: in vivo, Digitaria sanguinalis; conditions: for Crabgrass, Large plant response rating: 31 g ai/ha; for Crabgrass, Large plant response rating / Plant response rating, Crabgrass, Large: scale 0 to 100 (0 no effect, 100 complete control)
In short: as §2

[11] = test system: lambsquarters; assay: Test C postemergence; assay type: in vivo, Chenopodium album; conditions: for Lambsquarters plant response rating: 31 g ai/ha; for Lambsquarters plant response rating / Plant response rating, Lambsquarters: scale 0 to 100 (0 no effect, 100 complete control)
In short: as §2

[12] = test system: morningglory; assay: Test C postemergence; assay type: in vivo, Ipomoea coccinea; conditions: for Morningglory plant response rating: 31 g ai/ha; for Morningglory plant response rating / Plant response rating, Morningglory: scale 0 to 100 (0 no effect, 100 complete control)
In short: as §2

[13] = test system: ragweed; assay: Test C postemergence; assay type: in vivo, Ambrosia elatior; conditions: for Ragweed plant response rating: 31 g ai/ha; for Ragweed plant response rating / Plant response rating, Ragweed: scale 0 to 100 (0 no effect, 100 complete control)
In short: as §2

[14] = test system: oilseed rape; assay: Test C postemergence; assay type: in vivo, Brassica napus; conditions: for Oilseed Rape plant response rating: 31 g ai/ha; for Oilseed Rape plant response rating / Plant response rating, Oilseed Rape: scale 0 to 100 (0 no effect, 100 complete control)
In short: as §2

[15] = test system: wild oat; assay: Test C postemergence; assay type: in vivo, Avena fatua; conditions: for Oat, Wild plant response rating: 31 g ai/ha; for Oat, Wild plant response rating / Plant response rating, Oat, Wild: scale 0 to 100 (0 no effect, 100 complete control)
In short: as §2

[16] = 125 g ai/ha, scale 0 (no effect) to 100 (complete control)
[17] = 250 g ai/ha, scale 0 (no effect) to 100 (complete control)
[18] = postemergence, visual rating, 13 to 15 days
[19] = 125 g ai/ha, postemergence, visual rating
[20] = Postemergence, 62 g ai/ha, 13 to 15 days
[21] = 16 g ai/ha, scale 0 to 100 (0 no effect, 100 complete control)
[22] = 16 g ai/ha, postemergence, 0 is no effect, 100 is complete control

## N#Cc1cccc(Oc2ncc(Cl)cn2)c1-n1cc(I)cn1 [Compound 204]
[1]
  Barnyardgrass plant response rating (0 to 100 scale, 0 is no effect, 100 is complete control): 70
  Barnyardgrass plant response rating: 100
[2]
  Crabgrass, Large plant response rating (0 to 100 scale): 100
  Crabgrass, Large plant response rating: 100
[3]
  Pigweed plant response rating (0 to 100 scale): 100
  Pigweed plant response rating: 100
[4]
  Corn plant response rating (0 to 100 scale): 0
  Corn plant response rating: 30
[5]
  Crabgrass, Large plant response rating: 90
  Plant response rating, Crabgrass, Large: 100
[6]
  Plant response rating, Rice: 20
[7]; [16]
  Foxtail, Giant plant response rating: 100
[7]; [17]
  Foxtail, Giant plant response rating: 100
[7]
  Plant response rating, Foxtail, Giant: 98
[8]; [16]
  Nutsedge, Yellow plant response rating: 60
[8]; [17]
  Nutsedge, Yellow plant response rating: 60
[8]
  Plant response rating, Nutsedge, Yellow: 0
[9]; [18]
  Ryegrass, Italian plant response rating: 5
[9]; [19]
  Plant response rating, Ryegrass, Italian: 10
[9]; 250 g ai/ha, postemergence
  Plant response rating (0 to 100), Ryegrass, Italian: 10
[9]; [20]
  Plant response rating, Ryegrass, Italian: 5
[10]; [18]
  Crabgrass, Large plant response rating: 5
[10]; [19]
  Plant response rating, Crabgrass, Large: 15
[10]; 250 g ai/ha, postemergence
  Plant response rating (0 to 100), Crabgrass, Large: 65
[10]; [20]
  Plant response rating, Crabgrass, Large: 10
[11]; [18]
  Lambsquarters plant response rating: 85
[11]; [19]
  Plant response rating, Lambsquarters: 90
[11]; 250 g ai/ha, postemergence
  Plant response rating (0 to 100), Lambsquarters: 95
[11]; [20]
  Plant response rating, Lambsquarters: 80
[12]; [18]
  Morningglory plant response rating: 60
[12]; [19]
  Plant response rating, Morningglory: 98
[12]; 250 g ai/ha, postemergence
  Plant response rating (0 to 100), Morningglory: 95
[12]; [20]
  Plant response rating, Morningglory: 65
[13]; [18]
  Ragweed plant response rating: 25
[13]; [19]
  Plant response rating, Ragweed: 35
[13]; 250 g ai/ha, postemergence
  Plant response rating (0 to 100), Ragweed: 75
[13]; [20]
  Plant response rating, Ragweed: 40
[14]; [18]
  Oilseed Rape plant response rating: 40
[14]; [19]
  Plant response rating, Oilseed Rape: 85
[14]; 250 g ai/ha, postemergence
  Plant response rating (0 to 100), Oilseed Rape: 75
[14]; [20]
  Plant response rating, Oilseed Rape: 70
[15]; [18]
  Oat, Wild plant response rating: 20
[15]; [19]
  Plant response rating, Oat, Wild: 15
[15]; 250 g ai/ha, postemergence
  Plant response rating (0 to 100), Oat, Wild: 15
[15]; [20]
  Plant response rating, Oat, Wild: 15

## N#Cc1cnn(-c2c(Oc3ncc(Cl)cn3)cccc2C(F)F)c1 [Compound 236]
[1]
  Barnyardgrass plant response rating (0 to 100 scale, 0 is no effect, 100 is complete control): 100
  Barnyardgrass plant response rating: 100
[2]
  Crabgrass, Large plant response rating (0 to 100 scale): 100
  Crabgrass, Large plant response rating: 100
[3]
  Pigweed plant response rating (0 to 100 scale): 100
  Pigweed plant response rating: 100
[4]
  Corn plant response rating (0 to 100 scale): 20
  Corn plant response rating: 90
[5]
  Crabgrass, Large plant response rating: 80
  Plant response rating, Crabgrass, Large: 100
[6]
  Plant response rating, Rice: 0
[7]; [21]
  Foxtail, Giant plant response rating: 35
[7]; [16]
  Foxtail, Giant plant response rating: 100
[7]
  Plant response rating, Foxtail, Giant: 100
[8]; [21]
  Nutsedge, Yellow plant response rating: 0
[8]; [16]
  Nutsedge, Yellow plant response rating: 75
[8]
  Plant response rating, Nutsedge, Yellow: 60
[9]; [22]
  Plant response rating (0 to 100), Ryegrass, Italian: 0
[9]; [18]
  Ryegrass, Italian plant response rating: 0
[9]; [19]
  Plant response rating, Ryegrass, Italian: 0
[9]; [20]
  Plant response rating, Ryegrass, Italian: 0
[10]; [22]
  Plant response rating (0 to 100), Crabgrass, Large: 5
[10]; [18]
  Crabgrass, Large plant response rating: 5
[10]; [19]
  Plant response rating, Crabgrass, Large: 5
[10]; [20]
  Plant response rating, Crabgrass, Large: 5
[11]; [22]
  Plant response rating (0 to 100), Lambsquarters: 80
[11]; [18]
  Lambsquarters plant response rating: 85
[11]; [19]
  Plant response rating, Lambsquarters: 90
[11]; [20]
  Plant response rating, Lambsquarters: 75
[12]; [22]
  Plant response rating (0 to 100), Morningglory: 10
[12]; [18]
  Morningglory plant response rating: 45
[12]; [19]
  Plant response rating, Morningglory: 75
[12]; [20]
  Plant response rating, Morningglory: 70
[13]; [22]
  Plant response rating (0 to 100), Ragweed: 10
[13]; [18]
  Ragweed plant response rating: 15
[13]; [19]
  Plant response rating, Ragweed: 75
[13]; [20]
  Plant response rating, Ragweed: 40
[14]; [22]
  Plant response rating (0 to 100), Oilseed Rape: 30
[14]; [18]
  Oilseed Rape plant response rating: 10
[14]; [19]
  Plant response rating, Oilseed Rape: 65
[14]; [20]
  Plant response rating, Oilseed Rape: 30
[15]; [22]
  Plant response rating (0 to 100), Oat, Wild: 0
[15]; [18]
  Oat, Wild plant response rating: 0
[15]; [19]
  Plant response rating, Oat, Wild: 5
[15]; [20]
  Plant response rating, Oat, Wild: 5
